# In the supplement of paper PMC10307832:
# Legend:
# Experiment in all cases: relative viability (nuclei count vs DMSO), 5 days (fraction); higher = more cells survive
# [1] = test system: 201T
# How it was run: (§1)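 Lung cancer cell lines, seeded in 1536-well plates, were treated the following day by pin tool with a single drug or with five library-drug doses (not always all listed) in √10 steps on top of a fixed anchor-drug dose. Cells were fixed and nuclei stained in one step after 5 days, and nuclei were counted. Relative viability is the nuclei count for treated wells divided by that for vehicle wells, reported as medians of duplicate plates.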
# [2] = test system: NCI-H727
# How it was run: as §1
# [3] = test system: NCI-H596
# How it was run: as §1
# [4] = test system: ABC-1
# How it was run: as §1
# [5] = test system: H3255
# How it was run: as §1
# [6] = test system: NCI-H1915
# How it was run: as §1
# [7] = test system: NCI-H441
# How it was run: as §1
# [8] = test system: PC-3 [JPC-3]
# How it was run: as §1
# [9] = test system: NCI-H1944
# How it was run: as §1
# [10] = test system: CAL-12T
# How it was run: as §1
# [11] = test system: NCI-H2023
# How it was run: as §1
# [12] = test system: LC-2-ad
# How it was run: as §1
# [13] = test system: BEN
# How it was run: as §1
# [14] = test system: LCLC-97TM1
# How it was run: as §1
# [15] = test system: NCI-H661
# How it was run: as §1
# [16] = test system: NCI-H2087
# How it was run: as §1
# [17] = test system: NCI-H650
# How it was run: as §1
# [18] = test system: A-427
# How it was run: as §1
# [19] = test system: NCI-H1651
# How it was run: as §1
# [20] = test system: NCI-H460
# How it was run: as §1
# [21] = test system: NCI-H1650
# How it was run: as §1
# [22] = test system: NCI-H520
# How it was run: as §1
smiles,measurement,setting,value
NC(=O)Nc1cc(-c2cccc(F)c2)sc1C(=O)N[C@H]1CCCNC1 [AZD7762] + O=C(CCCCCCC(=O)Nc1ccccc1)NO [Vorinostat] (partner 1 µM),relative viability,[1]; first compound 0.01 µM,0.996
same,relative viability,[1]; first compound 0.03162 µM,1.03
same,relative viability,[1]; first compound 0.1 µM,1.03
same,relative viability,[1]; first compound 0.3162 µM,1.08
same,relative viability,[1]; first compound 1 µM,1.01
same,relative viability,[2]; first compound 0.01 µM,1.18
same,relative viability,[2]; first compound 0.03162 µM,1.26
same,relative viability,[2]; first compound 0.1 µM,1.2
same,relative viability,[2]; first compound 0.3162 µM,1.24
same,relative viability,[2]; first compound 1 µM,0.868
same,relative viability,[3]; first compound 0.01 µM,0.691
same,relative viability,[3]; first compound 0.03162 µM,0.803
same,relative viability,[3]; first compound 0.1 µM,0.716
same,relative viability,[3]; first compound 0.3162 µM,0.593
same,relative viability,[3]; first compound 1 µM,0.594
same,relative viability,[4]; first compound 0.01 µM,0.847
same,relative viability,[4]; first compound 0.03162 µM,1.47
same,relative viability,[4]; first compound 0.1 µM,1.04
same,relative viability,[4]; first compound 0.3162 µM,0.976
same,relative viability,[4]; first compound 1 µM,0.314
same,relative viability,[5]; first compound 0.01 µM,0.944
same,relative viability,[5]; first compound 0.03162 µM,0.831
same,relative viability,[5]; first compound 0.1 µM,0.809
same,relative viability,[5]; first compound 0.3162 µM,0.722
same,relative viability,[5]; first compound 1 µM,0.684
same,relative viability,[6]; first compound 0.01 µM,0.567
same,relative viability,[6]; first compound 0.03162 µM,0.526
same,relative viability,[6]; first compound 0.1 µM,0.462
same,relative viability,[6]; first compound 0.3162 µM,0.474
same,relative viability,[6]; first compound 1 µM,0.373
same,relative viability,[7]; first compound 0.01 µM,1.09
same,relative viability,[7]; first compound 0.03162 µM,0.804
same,relative viability,[7]; first compound 0.1 µM,1.01
same,relative viability,[7]; first compound 0.3162 µM,0.864
same,relative viability,[7]; first compound 1 µM,0.312
same,relative viability,[8]; first compound 0.01 µM,0.644
same,relative viability,[8]; first compound 0.03162 µM,0.888
same,relative viability,[8]; first compound 0.1 µM,0.759
same,relative viability,[8]; first compound 0.3162 µM,0.607
same,relative viability,[8]; first compound 1 µM,0.501
same,relative viability,[9]; first compound 0.01 µM,0.544
same,relative viability,[9]; first compound 0.03162 µM,0.654
same,relative viability,[9]; first compound 0.1 µM,0.611
same,relative viability,[9]; first compound 0.3162 µM,0.568
same,relative viability,[9]; first compound 1 µM,0.295
same,relative viability,[10]; first compound 0.01 µM,0.861
same,relative viability,[10]; first compound 0.03162 µM,0.693
same,relative viability,[10]; first compound 0.1 µM,0.9
same,relative viability,[10]; first compound 0.3162 µM,0.276
same,relative viability,[10]; first compound 1 µM,0.167
same,relative viability,[11]; first compound 0.01 µM,0.548
same,relative viability,[11]; first compound 0.03162 µM,0.415
same,relative viability,[11]; first compound 0.1 µM,0.257
same,relative viability,[11]; first compound 0.3162 µM,0.184
same,relative viability,[11]; first compound 1 µM,0.0942
same,relative viability,[12]; first compound 0.01 µM,0.724
same,relative viability,[12]; first compound 0.03162 µM,0.755
same,relative viability,[12]; first compound 0.1 µM,0.749
same,relative viability,[12]; first compound 0.3162 µM,0.647
same,relative viability,[12]; first compound 1 µM,0.448
same,relative viability,[13]; first compound 0.01 µM,0.639
same,relative viability,[13]; first compound 0.03162 µM,0.558
same,relative viability,[13]; first compound 0.1 µM,0.633
same,relative viability,[13]; first compound 0.3162 µM,0.619
same,relative viability,[13]; first compound 1 µM,0.543
same,relative viability,[14]; first compound 0.01 µM,0.799
same,relative viability,[14]; first compound 0.03162 µM,0.725
same,relative viability,[14]; first compound 0.1 µM,0.648
same,relative viability,[14]; first compound 0.3162 µM,0.636
same,relative viability,[14]; first compound 1 µM,0.356
same,relative viability,[15]; first compound 0.01 µM,0.929
same,relative viability,[15]; first compound 0.03162 µM,0.867
same,relative viability,[15]; first compound 0.1 µM,0.98
same,relative viability,[15]; first compound 0.3162 µM,0.604
same,relative viability,[15]; first compound 1 µM,0.341
same,relative viability,[16]; first compound 0.01 µM,0.891
same,relative viability,[16]; first compound 0.03162 µM,0.874
same,relative viability,[16]; first compound 0.1 µM,0.841
same,relative viability,[16]; first compound 0.3162 µM,0.976
same,relative viability,[16]; first compound 1 µM,0.791
same,relative viability,[17]; first compound 0.01 µM,0.435
same,relative viability,[17]; first compound 0.03162 µM,0.404
same,relative viability,[17]; first compound 0.1 µM,0.411
same,relative viability,[17]; first compound 0.3162 µM,0.399
same,relative viability,[17]; first compound 1 µM,0.334
same,relative viability,[18]; first compound 0.01 µM,0.875
same,relative viability,[18]; first compound 0.03162 µM,0.874
same,relative viability,[18]; first compound 0.1 µM,0.857
same,relative viability,[18]; first compound 0.3162 µM,0.728
same,relative viability,[18]; first compound 1 µM,0.41
same,relative viability,[19]; first compound 0.01 µM,0.569
same,relative viability,[19]; first compound 0.03162 µM,0.727
same,relative viability,[19]; first compound 0.1 µM,0.587
same,relative viability,[19]; first compound 0.3162 µM,0.533
same,relative viability,[19]; first compound 1 µM,0.272
same,relative viability,[20]; first compound 0.01 µM,0.885
same,relative viability,[20]; first compound 0.03162 µM,0.63
same,relative viability,[20]; first compound 0.1 µM,0.684
same,relative viability,[20]; first compound 0.3162 µM,0.216
same,relative viability,[20]; first compound 1 µM,0.0532
same,relative viability,[21]; first compound 0.01 µM,0.622
same,relative viability,[21]; first compound 0.03162 µM,0.719
same,relative viability,[21]; first compound 0.1 µM,0.651
same,relative viability,[21]; first compound 0.3162 µM,0.392
same,relative viability,[21]; first compound 1 µM,0.157
same,relative viability,[22]; first compound 0.01 µM,0.78
same,relative viability,[22]; first compound 0.03162 µM,0.825
same,relative viability,[22]; first compound 0.1 µM,0.635
same,relative viability,[22]; first compound 0.3162 µM,0.375
same,relative viability,[22]; first compound 1 µM,0.187
